In EP0620225B1, “Cephalosporin derivatives” (Basilea Pharmaceutica AG, priority 1993, dated 1994):
≈ marks a conversion by molar mass, not a printed value.

How the values were obtained:
Acinetobacter sp.51-156 = test: Antibacterial spectrum (MIC), agar dilution; format: cell-based; conditions: SP.51156, read-out: MIC
Procedure: (§1) In vitro activity was determined by minimum inhibitory concentration in a microorganism spectum by the agar dilution method in Mueller Hinton agar.

C.freundii 43 = test: Antibacterial spectrum (MIC), agar dilution; format: cell-based; conditions: Citrobacter freundii, read-out: MIC
Procedure: as §1

C.freundii 902 = test: Antibacterial spectrum (MIC), agar dilution; format: cell-based; conditions: Citrobacter freundii, read-out: MIC
Procedure: as §1

E.cloacae 908R = test: Antibacterial spectrum (MIC), agar dilution; format: cell-based; conditions: Enterobacter cloacae, read-out: MIC
Procedure: as §1

E.cloacae 908SSi = test: Antibacterial spectrum (MIC), agar dilution; format: cell-based; conditions: Enterobacter cloacae, read-out: MIC
Procedure: as §1

E.coli 25922 = test: Antibacterial spectrum (MIC), agar dilution; format: cell-based; conditions: Escherichia coli, read-out: MIC
Procedure: as §1

E.faecalis 6 = test: Antibacterial spectrum (MIC), agar dilution; format: cell-based; conditions: Enterococcus faecalis, read-out: MIC
Procedure: as §1

H.influenzae 1 = test: Antibacterial spectrum (MIC), agar dilution; format: cell-based; conditions: Haemophilus influenzae, read-out: MIC
Procedure: as §1

K.pneumoniae 418 = test: Antibacterial spectrum (MIC), agar dilution; format: cell-based; conditions: Klebsiella pneumoniae, read-out: MIC
Procedure: as §1

L.monocytogenes BK23 = test: Antibacterial spectrum (MIC), agar dilution; format: cell-based; conditions: Listeria monocytogenes, read-out: MIC
Procedure: as §1

M.catarrhalis RA21 = test: Antibacterial spectrum (MIC), agar dilution; format: cell-based; conditions: Moraxella catarrhalis, read-out: MIC
Procedure: as §1

M.morganii 6H-137 = test: Antibacterial spectrum (MIC), agar dilution; format: cell-based; conditions: Morganella morganii, 6H137, read-out: MIC
Procedure: as §1

N.meningitidis 69480 = test: Antibacterial spectrum (MIC), agar dilution; format: cell-based; conditions: Neisseria meningitidis, read-out: MIC
Procedure: as §1

P.aeruginosa 27853 = test: Antibacterial spectrum (MIC), agar dilution; format: cell-based; conditions: Pseudomonas aeruginosa, read-out: MIC
Procedure: as §1

P.mirabilis 2117 = test: Antibacterial spectrum (MIC), agar dilution; format: cell-based; conditions: Proteus mirabilis, read-out: MIC
Procedure: as §1

P.vulgaris 1028 = test: Antibacterial spectrum (MIC), agar dilution; format: cell-based; conditions: Proteus vulgaris, read-out: MIC
Procedure: as §1

S.agalactiae QK44 = test: Antibacterial spectrum (MIC), agar dilution; format: cell-based; conditions: Streptococcus agalactiae, read-out: MIC
Procedure: as §1

S.aureus 6538 = test: Antibacterial spectrum (MIC), agar dilution; format: cell-based; conditions: Staphylococcus aureus, read-out: MIC
Procedure: as §1

S.aureus 734 MRSA = test: Antibacterial spectrum (MIC), agar dilution; format: cell-based; conditions: Staphylococcus aureus, read-out: MIC
Procedure: as §1

S.marcescens 69438 = test: Antibacterial spectrum (MIC), agar dilution; format: cell-based; conditions: Serratia marcescens, read-out: MIC
Procedure: as §1

S.pneumoniae Q19 = test: Antibacterial spectrum (MIC), agar dilution; format: cell-based; conditions: Streptococcus pneumoniae, read-out: MIC
Procedure: as §1

S.pyogenes B15 = test: Antibacterial spectrum (MIC), agar dilution; format: cell-based; conditions: Streptococcus pyogenes, read-out: MIC
Procedure: as §1

S.viridans group 016 = test: Antibacterial spectrum (MIC), agar dilution; format: cell-based; conditions: Streptococcus viridans, read-out: MIC
Procedure: as §1

X.maltophilia 1AC739 = test: Antibacterial spectrum (MIC), agar dilution; format: cell-based; conditions: Stenotrophomonas maltophilia, read-out: MIC
Procedure: as §1

S.aureus MSSA = test: In vitro activity against selected species (MIC50, MIC90, range); format: cell-based; conditions: Staphylococcus aureus, medium MHB (Mueller Hinton Broth)
S.pneumoniae PEN-R = test: as above; format: cell-based; conditions: Streptococcus pneumoniae, medium IsoB + 20% serum
E.faecalis = test: as above; format: cell-based; conditions: Enterococcus faecalis, medium MHA
Procedure: as §1

S.aureus MRSA = test: as above; format: cell-based; conditions: Staphylococcus aureus, medium MHA (Mueller Hinton Agar) +NaCl
Procedure: as §1

E.faecium = test: In vitro activity against selected species (MIC50, range); format: cell-based; conditions: Enterococcus faecium, medium MHA
Procedure: as §1

Escherichia coli 25922 = test: Efficacy against systemic infections (septicemia) in mice; format: in vivo; conditions: Escherichia coli, 96 h, E.coli 25922, sc 1 and 3 h after challenge, survival day 4
Procedure: (§2) Septicemia was induced in outbred Swiss albino mice (Jbm MoRo [specific pathogen free]; weight 16 to 20 g, Biomedical Research Laboratories, Füllinsdorf, Switzerland). Mice were infected by intraperitoneal injection of diluted overnight cultures of the test organisms. Bacterial challenge doses were 4-10 times the number of organisms required to kill 50% of untreated animals within 48 h. The test compounds were administered p.o. or s.c. 1 and 3 h after the bacterial challenge. To treat the infection with Pseudomonas aeruginosa BA an additional dose was given 5 h after challenge. Control and treatment groups at each dose were composed of five mice each. The 50% effective dose (ED50, in milligrams per kilogram) was calculated by probit analysis as described by Finney (Finney, D.J. 1978, Statistical method in biological assay, 3rd ed. Charles Griffin & Co., Ltd., London), from the survival rates on day 4 after infection.

S.aureus Smith = test: as above; format: in vivo; conditions: Staphylococcus aureus, 96 h, sc 1 and 3 h after challenge, survival day 4
Procedure: as §2

## Nc1nc(/C(=N/O)C(=O)N[C@@H]2C(=O)N3C(C(=O)O)=C(/C=C4\CCN(CCF)C4=O)CS[C@H]23)cs1 [F, [6R-[3(E),6α,7β(Z)]]-7-[[(2-Amino-4-thiazolyl)(hydroxyimino)-acetyl]amino] -3-[[1-(2-fluoroethyl)-2-oxo-3-pyrrolidinylidene]methyl] -8-oxo-5-this-1-azabicyclo[4.2.0]-oct-2-ene-2-carboxylic acid]
Acinetobacter sp.51-156
  MIC: 16 µg/mL (≈ 31.3 µM)
C.freundii 43
  MIC: 4 µg/mL (≈ 7.84 µM)
C.freundii 902
  MIC: 0.12 µg/mL (≈ 0.235 µM)
E.cloacae 908R
  MIC: 16 µg/mL (≈ 31.3 µM)
E.cloacae 908SSi
  MIC: 0.12 µg/mL (≈ 0.235 µM)
E.coli 25922
  MIC: ≤ 0.06 µg/mL
E.faecalis 6
  MIC: 1 µg/mL (≈ 1.96 µM)
H.influenzae 1
  MIC: 0.12 µg/mL (≈ 0.235 µM)
K.pneumoniae 418
  MIC: ≤ 0.06 µg/mL
L.monocytogenes BK23
  MIC: 2 µg/mL (≈ 3.92 µM)
M.catarrhalis RA21
  MIC: 8 µg/mL (≈ 15.7 µM)
M.morganii 6H-137
  MIC: ≤ 0.06 µg/mL
N.meningitidis 69480
  MIC: ≤ 0.06 µg/mL
P.aeruginosa 27853
  MIC: 32 µg/mL (≈ 62.7 µM)
P.mirabilis 2117
  MIC: ≤ 0.06 µg/mL
P.vulgaris 1028
  MIC: 2 µg/mL (≈ 3.92 µM)
S.agalactiae QK44
  MIC: 0.12 µg/mL (≈ 0.235 µM)
S.aureus 6538
  MIC: 0.5 µg/mL (≈ 0.979 µM)
S.aureus 734 MRSA
  MIC: 8 µg/mL (≈ 15.7 µM)
S.marcescens 69438
  MIC: 0.5 µg/mL (≈ 0.979 µM)
S.pneumoniae Q19
  MIC: ≤ 0.06 µg/mL
S.pyogenes B15
  MIC: ≤ 0.06 µg/mL
S.viridans group 016
  MIC: 0.5 µg/mL (≈ 0.979 µM)
X.maltophilia 1AC739
  MIC: > 32 µg/mL
S.aureus MSSA; MIC range
  MIC: 0.5 to 1 µg/mL (≈ 0.979 to 1.96 µM)
S.aureus MSSA
  MIC50: 0.5 µg/mL (≈ 0.979 µM)
  MIC90: 1 µg/mL (≈ 1.96 µM)
S.pneumoniae PEN-R; MIC range
  MIC: 0.12 to 0.5 µg/mL
S.pneumoniae PEN-R
  MIC50: 0.5 µg/mL
E.faecalis; MIC range
  MIC: 0.5 to 2 µg/mL (≈ 0.979 to 3.92 µM)
E.faecalis
  MIC50: 1 µg/mL (≈ 1.96 µM)
  MIC90: 2 µg/mL (≈ 3.92 µM)
S.aureus MRSA; MIC range
  MIC: 8 to 16 µg/mL (≈ 15.7 to 31.3 µM)
S.aureus MRSA
  MIC50: 8 µg/mL (≈ 15.7 µM)
  MIC90: 8 µg/mL (≈ 15.7 µM)
E.faecium; MIC range
  MIC: 1 to 16 µg/mL (≈ 1.96 to 31.3 µM)
E.faecium
  MIC50: 2 µg/mL (≈ 3.92 µM)
Escherichia coli 25922
  ED50: < 0.1 mg/kg
S.aureus Smith
  ED50: < 1 mg/kg
